Assay [1] deals with WGA (Wheat Germen Agglutinin). Briefly: T1sel validation assay: binding of GlcNAc to WGA. The settings on record: T1sel method; lectin 20 uM; preliminary assay. The procedure: page 7: Calculation of Binding Constants using T1sel. We have used the T1sel method for the evaluation of the KD binding. In order to assess the validity of the method we performed a preliminary assay using the known system of the binding of GlcNAc to WGA (Wheat […] Agglutinin) using a concentration of lectin of 20 uM. […] T1sel method is described in the experimental section of the main paper. (1 picture or pasted object on this page, not shown here)

The target of assay [2] is WGA (Wheat Germen Agglutinin). Conditions: reported value, no reference given; cited from earlier work.
For assay [3], the target named is T1, Human recombinant FGF-1 (Homo sapiens, UniProt P05230).
T1 construct: Human recombinant FGF-1 consisting of 141 residues; purchased Peprotech; host or cells: E. coli
T1 sequence (P05230 with tags, fused parts or gaps limits assumed): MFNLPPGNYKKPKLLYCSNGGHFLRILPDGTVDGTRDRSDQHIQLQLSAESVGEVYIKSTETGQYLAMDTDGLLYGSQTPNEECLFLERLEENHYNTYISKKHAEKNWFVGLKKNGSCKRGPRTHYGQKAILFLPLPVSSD
Briefly: IC50 by selective T1 (T1sel) NMR at different ligand concentrations. Conditions: T1sel method; 20 μM protein, ligand 80-640 μM. It counts as binding. How it is done: (§1) IC50 values using STD-NMR were calculated for compound 1 at different concentrations based on the initial rates of the affinity factor method (Figure 5). […] In this case, due to the electrostatic nature of the complex, the gap between the protein and the ligand protons is very large, yielding low magnetization transfer values. On other hand, the small binding constant implies a large consumption of trisaccharide due to the high concentration needed to complete a meaningful titration curve. This, together with the large amount of time needed to record the full series of experiments, forced us to consider another method for the estimation of the IC50. Thus, we explored the IC50 calculation using selective T1 at different concentrations (Figure 6). Nevertheless, they are in agreement with the values obtained by Yu-Peng et al., when performing the same measure with disaccharides and FGF-2 by ITC [18].
Selective T1 NMR experiments. The samples were prepared using the same buffer at 20 μM protein concentration, while ligand concentration was 80, 160, 320, 480 and 640 μM. The ratios between protein and ligand were then 1:4, 1:8, 1:16, 1:24 and 1:32, respectively. We carry out studies on ^1H longitudinal relaxation rate (1/T1(sel). The relaxation times were measured by inversion recovery pulse sequence.
To determine the IC50, we adjusted the experimental values of the intensity signals vs. recovery delays to obtain an exponential function. We obtained the selective T1 value by f(t) = I0 × [1 − a × exp (−t/T1)]. In a ligand-receptor system where the ligand is present in large excess over the receptor binding sites, the ligand relaxation rate is describe by 1/T1obs = 1/T1free + fbound/(T1bound + tbound), where fbound is the fraction bound ([PL]/[L]) and τbound is the lifetime of the bound state. The relationship between total ligand concentration and T1 is then [P]0T1obs = ([L]0 + IC50)(T1bound + τbound), and a plot of [P]0 T1obs versus [L]0 gives a straight line with IC50 obtained from the intercept of the x axis.

Assay [4] deals with T1, Human recombinant FGF-1. Nature of the assay: STD-NMR initial growth rates (STD0) of trisaccharides in presence of FGF-1. Type of assay: binding. The settings on record: 600 MHz, 289 K, protein 19 µM, ligand 1.6 mM; for STD0 H1-B: anomeric proton of ring B; for STD0 H1-A: anomeric proton of ring A.
The target of assay [5] is T1, Human recombinant FGF-1. The description is as above. The settings on record: for STD0 H1-C: anomeric proton of ring C, 600 MHz, 289 K, protein 19 µM, ligand 1.6 mM; for Relative STD0 H1-B / Relative STD0 H1-C / Relative STD0 H1-A: relative to largest anomeric STD0 of the compound (=100). Type of assay: binding. From the text:
STD-NMR [30] studies were acquired for all the trisaccharides in the library in presence of FGF-1 using the same experimental conditions (see material and methods). Transference of saturation for all trisaccharides probed the interaction with the protein. Nevertheless, in contrast to the case of Langerin interaction, the results differed between the different compounds, indicating the existence of some differences in binding. Unfortunately, the spectral crowding only allowed us to accurately integrate the three anomeric signals along the saturation times, see Figure 3. Using a methodology previously described for disconnect the effect from proton relaxation on the STD values at a given time, the values of the initial rate of growth of STD (STD0) for the considered signals were obtained for the signals under consideration (Figure 4, Table 1). The distribution of magnetization along the trisaccharide chain is rather homogeneous, and is compatible with an extended interaction along the positive cleft of FGF-1, where the main binding site is located.
STD-NMR Experiments. All the samples were prepared in 250 μL 5 mM phostate buffer at pH 6.0 and 100 mM NaCl in 99.9% D2O. The concentration of the protein was 19 µM, and the ligand was 1.6 mM. The ratio between the protein and ligand was 1:84. The experiments were performed at 289 K. STD-NMR experiments were carried out with spin-lock to suppress protein signals. Moreover, we tried to suppress the solvent using excitation sculpting with gradients, and we used a shaped pulse train for saturation, alternating between on and off resonance. The on-resonance and off-resonance frequencies were set to 0.7 and 40 ppm, respectively. A spoil sequence was used to destroy unwanted magnetization. The saturation times were 0.5, 1, 2, 3 and 4 s, with an additional delay set to 3.6, 3.1, 2.1, 1.1 and 0.1, respectively, in order to keep the relaxation delay constant at […] for all experiments. STD NMR experiments were performed with 2048 scans with a total experimental time for every point of 5 h.
The STD initial rates (STD0) were calculated from the curve of STD vs. saturation time. To do so, we utilized the equation: STD0(t) = a [1 − exp (−bt)], where a represents the asymptotic maximum of the STD build-up curve (STDmax), b is a rate constant that depends on the relaxation properties of a given proton that measures the rate of the STD build-up (Ksat), and t is the saturation time (tsat). The STD0 values were obtained as the product of the ab coefficients.

Assay [6] has as its target T1, Human recombinant FGF-1. Briefly: IC50 by STD-NMR, initial rates of the STD affinity factor (STD0-AF). It counts as binding. The settings on record: 600 MHz, 298 K; authors do not support validity of the result; read-out: IC50 (STD-NMR, STD0-AF method). How it is done:
as §1
STD-NMR Experiments. […]
IC50 was obtained using the initial rates of the STD affinity factor approximation. The STD-AF initial slopes (STD-AF0) were calculated as before from the curve of STD-AF vs. saturation time at several ligand concentrations. From these initial slopes, the binding isotherm was built (STD-AF0 vs. ligand concentration), and the curve fitted to a Langmuir equation, from which the IC50 value was determined.

Where two headings read alike, the source gives them in different places.

Usually Kd stands for the constant that tells how readily two partners part at equilibrium. As for `CC(=O)N[C@H]1C(O)O[C@H](CO)[C@@H](O)[C@@H]1O` (stereo partly shown) [GlcNAc], the results for the Kd in assay [1] and in assay [2] were 2100 µM and 2500 µM, respectively.

A word on the IC50: it is the concentration that gives 50% inhibition. In the case of `CC(=O)N[C@H]1[C@@H](OC(C)C)O[C@H](CO)[C@@H](O[C@@H]2O[C@@H](C(=O)O)[C@@H](O[C@H]3O[C@H](CO)[C@@H](O)[C@H](O)[C@H]3NS(=O)(=O)O)[C@H](O)[C@H]2OS(=O)(=O)O)[C@@H]1O` [Compound 8], at Human recombinant FGF-1 [3], the IC50 was found to be 132 ± 1.8 µM. For the same molecule, at Human recombinant FGF-1 [4], the “STD0 H1-B” value was 0.18. Also, at Human recombinant FGF-1 [5], the “STD0 H1-C” value amounted to 0.19, the “Relative STD0 H1-B” value was 99 and the “Relative STD0 H1-C” value is reported as 100.

As to `CC(C)O[C@H]1O[C@H](COS(=O)(=O)O)[C@@H](O[C@@H]2O[C@@H](C(=O)O)[C@@H](O[C@H]3O[C@H](COS(=O)(=O)O)[C@@H](O)[C@H](O)[C@H]3NS(=O)(=O)O)[C@H](O)[C@H]2OS(=O)(=O)O)[C@H](O)[C@H]1NS(=O)(=O)O` [Compound 1], at Human recombinant FGF-1 [3], the half-maximal inhibitory concentration (IC50) came out at 49.2 ± 0.3 µM. In addition, on Human recombinant FGF-1 [4], the “STD0 H1-A” value turned out to be 0.28 and the “STD0 H1-B” value came to 0.34. For the same molecule, the IC50 on Human recombinant FGF-1 [6] worked out at 1700 ± 10 µM. Further, on Human recombinant FGF-1 [5], the “STD0 H1-C” value is 0.42, the “Relative STD0 H1-A” value amounted to 66, the “Relative STD0 H1-B” value was determined as 80 and the “Relative STD0 H1-C” value is given as 100.

In the case of `CC(=O)N[C@H]1[C@@H](OC(C)C)O[C@H](COS(=O)(=O)O)[C@@H](O[C@@H]2O[C@@H](C(=O)O)[C@@H](O[C@H]3O[C@H](CO)[C@@H](O)[C@H](O)[C@H]3NS(=O)(=O)O)[C@H](O)[C@H]2OS(=O)(=O)O)[C@@H]1O` [Compound 4], the IC50 on Human recombinant FGF-1 [3] amounted to 84.7 ± 0.4 µM. Also, at Human recombinant FGF-1 [4], the “STD0 H1-A” value was 0.17 and the “STD0 H1-B” value is 0.25. Moreover, the IC50 at Human recombinant FGF-1 [6] came to 1700 µM. Besides, at Human recombinant FGF-1 [5], the “STD0 H1-C” value was found to be 0.24, the “Relative STD0 H1-A” value amounted to 67, the “Relative STD0 H1-B” value was found to be 100 and the “Relative STD0 H1-C” value was 94.

With `CC(C)O[C@H]1O[C@H](CO)[C@@H](O[C@@H]2O[C@@H](C(=O)O)[C@@H](O[C@H]3O[C@H](CO)[C@@H](O)[C@H](O)[C@H]3NS(=O)(=O)O)[C@H](O)[C@H]2OS(=O)(=O)O)[C@H](O)[C@H]1NS(=O)(=O)O` [Compound 7], the IC50 on Human recombinant FGF-1 [3] came to 46.7 ± 0.9 µM. Also, on Human recombinant FGF-1 [4], the “STD0 H1-A” value stood at 0.18 and the “STD0 H1-B” value was 0.08. Also, on Human recombinant FGF-1 [5], the “STD0 H1-C” value came to 0.11, the “Relative STD0 H1-A” value worked out at 100, the “Relative STD0 H1-B” value is reported as 48 and the “Relative STD0 H1-C” value came to 64.

As to `CC(C)O[C@H]1O[C@H](CO)[C@@H](O[C@@H]2O[C@@H](C(=O)O)[C@@H](O[C@H]3O[C@H](COS(=O)(=O)O)[C@@H](O)[C@H](O)[C@H]3NS(=O)(=O)O)[C@H](O)[C@H]2OS(=O)(=O)O)[C@H](O)[C@H]1NS(=O)(=O)O` [Compound 5], the concentration for half-maximal inhibition (IC50) at Human recombinant FGF-1 [3] was determined as 50.6 ± 0.1 µM. For the same molecule, at Human recombinant FGF-1 [4], the “STD0 H1-A” value stood at 0.07 and the “STD0 H1-B” value was determined as 0.06. In addition, at Human recombinant FGF-1 [5], the “STD0 H1-C” value is listed as 0.06, the “Relative STD0 H1-A” value is listed as 100, the “Relative STD0 H1-B” value came out at 82 and the “Relative STD0 H1-C” value amounted to 87.

Take `CC(=O)N[C@H]1[C@@H](OC(C)C)O[C@H](CO)[C@@H](O[C@@H]2O[C@@H](C(=O)O)[C@@H](O[C@H]3O[C@H](COS(=O)(=O)O)[C@@H](O)[C@H](O)[C@H]3NS(=O)(=O)O)[C@H](O)[C@H]2OS(=O)(=O)O)[C@@H]1O` [Compound 6]: the IC50 on Human recombinant FGF-1 [3] was 181 ± 5.5 µM. For the same molecule, at Human recombinant FGF-1 [4], the “STD0 H1-A” value came out at 0.08 and the “STD0 H1-B” value amounted to 0.12. In addition, on Human recombinant FGF-1 [5], the “STD0 H1-C” value was 0.12, the “Relative STD0 H1-A” value came out at 62, the “Relative STD0 H1-B” value is on record as 100 and the “Relative STD0 H1-C” value is 94.

With `CC(=O)N[C@H]1[C@@H](OC(C)C)O[C@H](COS(=O)(=O)O)[C@@H](O[C@@H]2O[C@@H](C(=O)O)[C@@H](O[C@H]3O[C@H](COS(=O)(=O)O)[C@@H](O)[C@H](O)[C@H]3NS(=O)(=O)O)[C@H](O)[C@H]2OS(=O)(=O)O)[C@@H]1O` [Compound 2], on Human recombinant FGF-1 [3], the IC50 was 26.1 ± 0.7 µM. For the same molecule, at Human recombinant FGF-1 [4], the “STD0 H1-A” value was determined as 0.11 and the “STD0 H1-B” value was 0.36. Moreover, at Human recombinant FGF-1 [5], the “STD0 H1-C” value was 0.24, the “Relative STD0 H1-A” value was 31, the “Relative STD0 H1-B” value came out at 100 and the “Relative STD0 H1-C” value is 68.

Consider `CC(C)O[C@H]1O[C@H](COS(=O)(=O)O)[C@@H](O[C@@H]2O[C@@H](C(=O)O)[C@@H](O[C@H]3O[C@H](CO)[C@@H](O)[C@H](O)[C@H]3NS(=O)(=O)O)[C@H](O)[C@H]2OS(=O)(=O)O)[C@H](O)[C@H]1NS(=O)(=O)O` [Compound 3], for which the IC50 at Human recombinant FGF-1 [3] worked out at 15.4 ± 0.4 µM. On Human recombinant FGF-1 [4], the “STD0 H1-A” value is on record as 0.17 and the “STD0 H1-B” value is 0.23. At Human recombinant FGF-1 [5], the “STD0 H1-C” value is reported as 0.20, the “Relative STD0 H1-A” value was found to be 72, the “Relative STD0 H1-B” value was 100 and the “Relative STD0 H1-C” value is given as 88.

(Values after PMC5486114, “Interactions between a Heparin Trisaccharide Library and FGF-1 Analyzed by NMR Methods” (International Journal of Molecular Sciences, 2017).)
